Results from paper PMC11530130, “Peripherally restricted PICK1 inhibitor mPD5 ameliorates pain behaviors in murine inflammatory and neuropathic pain models” (JCI Insight, 2024).
Where “and” joins values, the source holds several entries; their conditions need not be identical. Identical values can stand only once.

Tests used:
[1] = system: mice, spared nerve injury (SNI) model; assay: SNI model, von Frey, repeated s.c. administration on 2 consecutive days; format: in vivo, mouse; set-up: von Frey threshold, Fig 7A, individual mice: unit not given here
Text: Repeated and sustained administration of mPD5 in the SNI model.
For the experiment with repeated administration of mPD5 (Figure 7A), male C57BL/6J (Janvier, France) mice underwent surgery leading to partial nerve injury, by cutting the peroneal and tibial nerves, producing hypersensitivity of the remaining sural nerve (SNI) as described in the “Induction of neuropathic pain (SNI model).”-section. On day 21 after surgery, hyperalgesia was confirmed by using von Frey filaments to induce mechanically evoked hypersensitivity and measure paw withdrawal threshold of the animals as described in the “Mechanically-evoked pain (von Frey).”-section. On the same day, mice were injected s.c. with 2, 10, or 50 μmol/kg mPD5 (10 μL/g) and evoked pain was tested again with the use of von Frey filaments at 1 and 5 hours after injection. 24 hours after the first injection, mice were injected s.c. with 2, 10, or 50 μmol/kg mPD5 (10 μL/g) again and evoked pain was tested with the use of von Frey filaments at 1, 5, and 24 hours after the second injection. […]

naive mice = assay: Male fertility test; format: in vivo, mouse; set-up: Male fertility test, individual values (Fig 6E) / male fertility test, BB value (Fig S8C) / male fertility test, AB value (Fig S8C): unit not given here
Text: Mice were 10 weeks old at the beginning of the experiment and acclimatized to the animal facility for two weeks after arrival. Male mice were randomized into two groups (n = 8/group) and weighed and injected s.c. once daily (between 3 pm and 4 pm) for 14 days with sterile PBS or 10 μmol/kg mPD5 (diluted in sterile PBS and pH adjusted to 7.4). After 14 days of dosing, the males were paired with female mice in fresh cages, and the number of pubs counted for 35 days (males were removed from the breeding cages after 14 days). Following the 14 days mating period, males were sacrificed by cervical dislocation caudae epidymidis were removed and weighed. Caudae epidymidis were cut into smaller pieces in 2 mL PBS (37 °C) and incubated (37 °C, 5% CO2) for 15 min. Following incubation, the mix was swirled gently, and 0.5 mL of the liquid was transferred to room tempered PBS to achieve a final volume of 1 mL.
Subsequently, sperm count was determined by transferring 50 µL of the sample to a hemocytometer, and each sample was determined in duplicate by an experimenter blinded to drug treatment. Following criteria were assessed: mobility (forward and circular), local tail mobility and total number. Females were weighed on a regular basis from removal of the males […]
Unless otherwise stated, all data were analysed using GraphPad Prism 9.4.1. and presented as mean +-SEM with the significance level set to p < 0.05. For locomotion and elevated plus maze, Ethovision XT 13 (Noldus) was used to track the distance travelled by each animal. For within group analysis (i.e., von Frey experiments), two-way ANOVA followed by Dunnett’s post hoc test was used. For between group analysis of multiple time points (i.e., locomotion experiments), two-way ANOVA was used without post hoc test due to lack of treatment significance in the ANOVA test. For the limb use experiment, data pre versus post treatment was analysed with a Kruskal Wallis test due to the non-parametric nature of the data. When analysing histograms of three groups or more (i.e., marble burying and elevated plus maze),

[2] = males s.c. 10 μmol/kg, once daily for 14 days
[3] = s.c. 10 μmol/kg, once daily for 14 days

`CCCCCCCCCCCCCC(=O)N(CCOCCOCCC(=O)N[C@@H](Cc1c[nH]cn1)C(=O)N[C@@H](Cc1c[nH]c2ccccc12)C(=O)N[C@@H](CC(C)C)C(=O)N[C@@H](CCCCN)C(=O)N[C@H](C(=O)O)C(C)C)CCOCCOCCC(=O)N[C@@H](Cc1c[nH]cn1)C(=O)N[C@@H](Cc1c[nH]c2ccccc12)C(=O)N[C@@H](CC(C)C)C(=O)N[C@@H](CCCCN)C(=O)N[C@H](C(=O)O)C(C)C` [mPD5, myristoyl-NPEG4-(HWLKV)2] was tested, and the “von Frey threshold, contralateral paw, Fig 7A, individual mice” value (“von Frey threshold, contralateral paw” for short) ([1]; A_contra, hr 5 day2) was 1.4 and 1 (3×), the “von Frey threshold, contralateral paw” value ([1]; A_contra, hr23) was 1 (3×) and 1.4 (4×) and 2 and the “von Frey threshold, contralateral paw” value ([1]; A_contra, hr1 day 1) was 1.4 (6×) and 1 and 2. For the same molecule, the “von Frey threshold, contralateral paw” value ([1]; A_contra, hr 1 day 2) was 1 (5×) and 1.4 (2×) and 2, the “von Frey threshold, contralateral paw” value ([1]; A_contra, hr 5 day 1) was 1.4 (6×) and 2 and 1 and the “von Frey threshold, contralateral paw” value ([1]; B_contra, hr23) was 1.4 (4×) and 1 (3×) and 2. The “von Frey threshold, contralateral paw” value ([1]; B_contra, hr1 day 1) was 1.4 (5×) and 1 (3×), the “von Frey threshold, contralateral paw” value ([1]; B_contra, hr 1 day 2) was 1.4 (5×) and 1 (3×) and the “von Frey threshold, contralateral paw” value ([1]; B_contra, hr 5 day 1) was 1.4 and 1 (2×) and 2 (5×). For the same molecule, the “von Frey threshold, contralateral paw” value ([1]; C_comtra, hr23) was 2 and 1.4 (5×) and 1 (2×), the “von Frey threshold, contralateral paw” value ([1]; C_comtra, hr1 day 1) was 3 and 2 (2×) and 1 (2×) and 1.4 (3×) and the “von Frey threshold, contralateral paw” value ([1]; C_comtra, hr 1 day 2) was 1 (2×) and 1.4 (4×) and 2 (2×). The “von Frey threshold, contralateral paw” value ([1]; C_comtra, hr 5 day 1) was 2 and 1 (4×) and 1.4 (3×), the “relief of mechanical hypersensitivity” value ([1]; SNI 3 weeks after surgery, first day, s.c. 50 μmol/kg only, 5 hours) was “significant effect at 5 hours” and the “relief of mechanical hypersensitivity” value ([1]; SNI 3 weeks after surgery, first day, s.c. 2, 10, 50 μmol/kg (all concentrations), 1 hour) was “significant effects at 1 hour”. For the same molecule, the “relief of mechanical hypersensitivity” value ([1]; SNI, next day (second injection), only 10 and 50 μmol/kg, 1 and 5 hours after administration) was “significant pain relief”, the development of tolerance ([1]; SNI, s.c. 2, 10, 50 μmol/kg on 2 consecutive days) was “do not indicate immediate development of tolerance” and the “von Frey threshold, Fig 7A, individual mice” value (“von Frey threshold, Fig 7A” below) ([1]; group 2, hr 5 day2) was 0.07 and 0.16 (2×). The “von Frey threshold, Fig 7A” value ([1]; group 2, hr23) was 0.07 (5×) and 0.16 (3×), the “von Frey threshold, Fig 7A” value ([1]; group 2, hr1 day 1) was 0.16 and 1 (2×) and 0.6 (2×) and 1.4 and 0.4 (2×) and the “von Frey threshold, Fig 7A” value ([1]; group 2, hr 1 day 2) was 0.16 (3×) and 1 and 0.6 (3×) and 0.4. The “von Frey threshold, Fig 7A” value ([1]; group 2, hr 5 day 1) was 0.07 (2×) and 0.4 (3×) and 0.16 (2×) and 0.6, the “von Frey threshold, Fig 7A” value ([1]; group 10, hr 5 day2) was 1 and the “von Frey threshold, Fig 7A” value ([1]; group 10, hr23) was 0.16 (3×) and 0.4 (3×) and 0.07 (2×). The “von Frey threshold, Fig 7A” value ([1]; group 10, hr1 day 1) was 1 (3×) and 2 (2×) and 0.4 and 1.4 and 0.6, the “von Frey threshold, Fig 7A” value ([1]; group 10, hr 1 day 2) was 1 (3×) and 2 (2×) and 0.4 (2×) and 1.4 and the “von Frey threshold, Fig 7A” value ([1]; group 10, hr 5 day 1) was 0.16 and 2 and 1 (2×) and 0.07 and 0.4 (3×). For the same molecule, the “von Frey threshold, Fig 7A” value ([1]; group 50, hr23) was 0.16 (5×) and 0.07 (3×), the “von Frey threshold, Fig 7A” value ([1]; group 50, hr1 day 1) was 1.4 (5×) and 1 and 0.6 and 0.16 and the “von Frey threshold, Fig 7A” value ([1]; group 50, hr 1 day 2) was 1 (4×) and 0.6 and 1.4 (2×) and 0.4. For the same molecule, the “von Frey threshold, Fig 7A” value ([1]; group 50, hr 5 day 1) was 0.6 (3×) and 1 and 0.4 (2×) and 0.16 (2×), the “male fertility test, AB value (Fig S8C)” value (naive mice; AB, individual animals) was 28 (3×) and 27 and 26 and 28.5 and 29 and the “male fertility test, BB value (Fig S8C)” value (naive mice; BB, individual animals) was 41.5 and 43 and 45 (2×) and 41 (2×) and 44. For the same molecule, the “male fertility test, cumulative value by day (Fig S8B)” value (from here on “male fertility test, cumulative value”) (naive mice; Day 19) was 0, the “male fertility test, cumulative value” value (naive mice; Day 20) was 17 and the “male fertility test, cumulative value” value (naive mice; Day 21) was 27. The “male fertility test, cumulative value” value (naive mice; Day 22) was 56, the “male fertility test, cumulative value” value (naive mice; Day 23) was 64 and the “male fertility test, cumulative value” value (naive mice; Day 24) was 64. The “male fertility test, cumulative value” value (naive mice; Day 25) was 64, the “male fertility test, cumulative value” value (naive mice; Day 26) was 64 and the “male fertility test, cumulative value” value (naive mice; Day 27) was 64. For the same molecule, the “male fertility test, cumulative value” value (naive mice; Day 28) was 64, the “male fertility test, cumulative value” value (naive mice; Day29) was 64 and the “male fertility test, cumulative value” value (naive mice; Day 30) was 64. The “male fertility test, cumulative value” value (naive mice; Day 31) was 64, the “male fertility test, cumulative value” value (naive mice; Day 32) was 64 and the “male fertility test, cumulative value” value (naive mice; Day 33) was 64. For the same molecule, the “male fertility test, cumulative value” value (naive mice; Day 34) was 64, the “male fertility test, cumulative value” value (naive mice; Day 35) was 64 and the “body weight drop per pup following birth” value (naive mice; [2]) was “the same for both groups”. The “number of pups per litter vs vehicle” value (naive mice; [2]) was “same between groups”, the “weight gain of females mated with treated male mice” value (naive mice; [2]) was “significantly higher” and the “Male fertility test, individual values (Fig 6E)” value (naive mice; naive mice) was 8 and 9 and 10. The “sperm count of the males vs vehicle” value (naive mice; [3]) was “same between groups” and the “sperm count, individual mice” value (naive mice; [3]) was 15062500 and 13125000 and 14250000 and 7750000 and 16000000 and 10750000.
